Source: patent US10703733B2, “MCL-1 inhibitors” (Gilead Sciences, Inc., priority 2018, dated 2020)
Read-outs that look alike come from different tables or passages of the source.

How the values were obtained:
SKBR3 cells = assay: SKBR3 Cell Viability Assay (CellTiter Glo); type: cell-based; settings: CellTiter Glo luminescence, read-out: MCL-1 CV SKBR3 EC50
Procedure: SKBR3 Cell Viability Assay Materials
SKBR3 Cells (ATCC HTB-30) were obtained from ATCC (Manassas, Va.) and cultured in McCoy 5A's medium (ATCC 30-2007)+10% fetal bovine serum (SH30071.03, HyClone, Pittsburgh, Pa.) plus 1× Penicillin-Streptomycin L-glutamine (Corning 30-009-C1, Corning, N.Y.)).
The cell viability assay was conducted in a 384-well tissue culture plate (Grenier 781086, Monroe, N.C.) in a total volume of 70 μL. Test compounds were prepared in 1,000×, serially diluted, and pre-spotted into 384-well tissue culture plate by Echo 555 Liquid Handler (Labcyte Inc., San Jose, Calif.). Seventy μl of 6,000 SKBR3 cells were dispensed into each well of the plate and incubated at 37° C. with 5% CO2 for 72 hours. At the end of incubation, 2× CellTiter Glo (CTG) reagents (1 part buffer with 2 parts substrate) (Promega, Madison, Wis.) were prepared, and the plate and the reagent were equilibrated to room temperature for 30 minutes. CTG reagent was added to each plate by Biomek FX at 20 μL/well with 5 times pipetting and mixing to induce cell lysis. Luminescence was read by Envision multimode reader (PerkinElmer). […] Percent inhibition was calculated as followed: % Inhibition=100%*(Well−Neg)/(Pos−Neg) Neg, negative control, DMSO Pos, positive control, 10 μM Puromycin

[1] = biological target: MCL-1/Bim interaction (recombinant human MCL-1 protein, residues 171-327; biotinylated human Bim peptide, residues 51-76) (Homo sapiens (Human), UniProt Q07820); assay: MCL-1/Bim Binding AlphaLISA Assay; settings: 0.0625 nM 6xHis-Mcl-1 (171-327), 0.0625 nM biotinylated-Bim peptide
How it was run: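 AlphaLISA with 0.0625 nM His-tagged MCL-1 (171-327) and 0.0625 nM biotinylated Bim (51-76) in 20 mM Hepes pH 7.5, 150 mM NaCl, 0.002% Brij 35, 1 mM DTT, 0.01% BSA. Compound preincubated 1 h with MCL-1, then Bim 2 h, acceptor beads 1 h, donor beads 1 h; percent inhibition against DMSO and no-protein/no-peptide controls.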

Chain of MCL-1/Bim interaction (recombinant human MCL-1 protein, residues 171-327; biotinylated human Bim peptide, residues 51-76) (Q07820 171-327): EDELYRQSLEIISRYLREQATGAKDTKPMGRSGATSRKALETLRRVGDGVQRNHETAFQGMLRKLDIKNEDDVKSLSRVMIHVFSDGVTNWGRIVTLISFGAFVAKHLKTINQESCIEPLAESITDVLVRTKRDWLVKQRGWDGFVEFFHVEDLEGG

| EC50 (SKBR3 cells; Homo sapiens, SK-BR-3, 72 h) | IC50 [1] | EC50 (SKBR3 cells; 72 hours) | Compound |
| --- | --- | --- | --- |
| 164 nM | 0.127 nM |  | COC[C@@H]1C[C@@H]1NC(=O)N[S@@]1(=O)=NC(=O)c2ccc3c(c2)N(C[C@@H]2CC[C@H]2[C@@H](OC)/C=C/C[C@H](C)C1)C[C@@]1(CCCc2cc(Cl)ccc21)CO3 [Example 315] |
| 2320 nM | 1.1 nM |  | CO[C@H]1/C=C/CCC[S@@](=O)(NC(=O)CCC2CCCC2)=NC(=O)c2ccc3c(c2)N(C[C@@H]2CC[C@H]21)C[C@@]1(CCCc2cc(Cl)ccc21)CO3 [Example 82] |
| 416 nM | 0.097 nM |  | CO[C@H]1/C=C/C[C@H](C)C[S@@](=O)(NC(=O)CCc2cnn(C)c2)=NC(=O)c2ccc3c(c2)N(C[C@@H]2CC[C@H]21)C[C@@]1(CCCc2cc(Cl)ccc21)CO3 [Example 142] |
| 68.9 nM | 0.075 nM |  | COCC1(COC)Cn2cc(C(=O)N[S@@]3(=O)=NC(=O)c4ccc5c(c4)N(C[C@@H]4CC[C@H]4[C@@H](O)/C=C/C[C@H](C)[C@H]3C)C[C@@]3(CCCc4cc(Cl)ccc43)CO5)cc2CO1 [Example 331] |
| 60.9 nM | 0.061 nM |  | CO[C@H]1/C=C/C[C@H](C)C[S@@](=O)(NC(=O)N2CC(OC)(c3ncnn3C)C2)=NC(=O)c2ccc3c(c2)N(C[C@@H]2CC[C@H]21)C[C@@]1(CCCc2cc(Cl)ccc21)CO3 [Example 277] |
| 144 nM | 0.141 nM |  | CO[C@H]1/C=C/C[C@H](C)C[S@@](=O)(NC(=O)[C@H]2C[C@@H](C(C)(C)O)C2)=NC(=O)c2ccc3c(c2)N(C[C@@H]2CC[C@H]21)C[C@@]1(CCCc2cc(Cl)ccc21)CO3 [Example 178] |
| 26.7 nM | 0.031 nM |  | COCCOCCO[C@H]1/C=C/[C@H](OC)[C@@H]2CC[C@H]2CN2C[C@@]3(CCCc4cc(Cl)ccc43)COc3ccc(cc32)C(=O)N=[S@](=O)(NC(=O)c2cn(C)nc2OC)C[C@H]1C [Example 376] |
| 46.5 nM | 0.042 nM |  | CO[C@H]1/C=C/C[C@H](C)C[S@@](=O)(NC(=O)N2CC(C)(OC)C2)=NC(=O)c2ccc3c(c2)N(C[C@@H]2CC[C@H]21)C[C@@]1(CCCc2cc(Cl)ccc21)CO3 [Example 363] |
| 47.1 nM | 0.037 nM |  | C[C@H]1C/C=C/[C@H](O)[C@@H]2CC[C@H]2CN2C[C@@]3(CCCc4cc(Cl)ccc43)COc3ccc(cc32)C(=O)N=[S@](=O)(NC(=O)N[C@H]2C[C@@H]2C(F)F)C1 [Example 321] |
| 6330 nM | 10.5 nM |  | CCN(C)C(=O)N[S@]1(=O)=NC(=O)c2ccc3c(c2)N(C[C@@H]2CC[C@H]2[C@@H](OC)/C=C/CCC1)C[C@@]1(CCCc2cc(Cl)ccc21)CO3 [Example 76] |
| 142 nM | 0.07 nM |  | COc1nn(C)cc1C(=O)N[S@@]1(=O)=NC(=O)c2ccc3c(c2)N(C[C@@H]2CC[C@H]2[C@@H](OC)/C=C/[C@H](OC)CC1)C[C@@]1(CCCc2cc(Cl)ccc21)CO3 [Example 392] |
| 37.1 nM | 0.031 nM |  | CO[C@H]1/C=C/C[C@H](C)C[S@@](=O)(NC(=O)NC23COC(C)(C2)C3)=NC(=O)c2ccc3c(c2)N(C[C@@H]2CC[C@H]21)C[C@@]1(CCCc2cc(Cl)ccc21)CO3 [Example 340] |
| 10000 nM | 1 nM |  | CO[C@H]1/C=C/CCC[S@@](=O)(NC(=O)CCc2c(C)cnn2C)=NC(=O)c2ccc3c(c2)N(C[C@@H]2CC[C@H]21)C[C@@]1(CCCc2cc(Cl)ccc21)CO3 [Example 103] |
| 113 nM | 0.161 nM |  | CO[C@H]1/C=C/C[C@H](C)C[S@@](=O)(NC(=O)[C@H](O)Cc2ccccc2)=NC(=O)c2ccc3c(c2)N(C[C@@H]2CC[C@H]21)C[C@@]1(CCCc2cc(Cl)ccc21)CO3 [Example 122] |
| 48.5 nM | 0.034 nM |  | CO[C@H]1/C=C/C[C@H](C)C[S@@](=O)(NC(=O)N[C@H]2C[C@H]2OC)=NC(=O)c2ccc3c(c2)N(C[C@@H]2CC[C@H]21)C[C@@]1(CCCc2cc(Cl)ccc21)CO3 [Example 317] |
| 80.5 nM | 0.089 nM |  | COc1cc(C(=O)N[S@@]2(=O)=NC(=O)c3ccc4c(c3)N(C[C@@H]3CC[C@H]3[C@@H](OC)/C=C/C[C@H](C)C2)C[C@@]2(CCCc3cc(Cl)ccc32)CO4)c(OC)nn1 [Example 278] |
| 304 nM | 0.075 nM |  | COc1nn(C)cc1C(=O)N[S@@]1(=O)=NC(=O)c2ccc3c(c2)N(C[C@@H]2CC[C@H]2[C@@H](OC)/C=C/CCC1)C[C@@]1(CCCc2cc(Cl)ccc21)CO3 [Example 389] |
| 44.4 nM | 0.029 nM |  | CO[C@H]1/C=C/C[C@H](C)C[S@@](=O)(NC(=O)N2C[C@H](OC)[C@H]2C)=NC(=O)c2ccc3c(c2)N(C[C@@H]2CC[C@H]21)C[C@@]1(CCCc2cc(Cl)ccc21)CO3 [Example 250] |
| 96.2 nM | 0.046 nM |  | CO[C@H]1/C=C/C[C@H](C)C[S@@](=O)(NC(=O)N2CC(C(C)(C)OC)C2)=NC(=O)c2ccc3c(c2)N(C[C@@H]2CC[C@H]21)C[C@@]1(CCCc2cc(Cl)ccc21)CO3 [Example 265] |
| 44 nM | 0.055 nM |  | CO[C@H]1/C=C/C[C@H](C)C[S@@](=O)(NC(=O)NC23CC(OC)(C2)C3)=NC(=O)c2ccc3c(c2)N(C[C@@H]2CC[C@H]21)C[C@@]1(CCCc2cc(Cl)ccc21)CO3 [Example 361] |
| 33.6 nM | 0.029 nM |  | CO[C@H]1/C=C/C[C@H](C)C[S@@](=O)(NC(=O)N[C@@H]2CC23CCOC3)=NC(=O)c2ccc3c(c2)N(C[C@@H]2CC[C@H]21)C[C@@]1(CCCc2cc(Cl)ccc21)CO3 (single isomer, unassigned) [Example 342] |
| 135 nM | 0.186 nM |  | CO[C@H]1/C=C/C[C@H](C)C[S@@](=O)(NC(=O)c2cnn(CC3CC3)c2)=NC(=O)c2ccc3c(c2)N(C[C@@H]2CC[C@H]21)C[C@@]1(CCCc2cc(Cl)ccc21)CO3 [Example 419] |
| 2090 nM | 0.2 nM |  | CO[C@H]1/C=C/CCC[S@@](=O)(NC(=O)CCc2csc(C)n2)=NC(=O)c2ccc3c(c2)N(C[C@@H]2CC[C@H]21)C[C@@]1(CCCc2cc(Cl)ccc21)CO3 [Example 99] |
|  | 0.7 nM | 1390 nM | CC[C@@H]1CC/C=C/[C@H](OC)[C@@H]2CC[C@H]2CN2C[C@@]3(CCCc4cc(Cl)ccc43)COc3ccc(cc32)C(=O)N=S1(=O)NC(=O)CCc1ccnn1C (single isomer, unassigned) [Example 71] |
| 139 nM | 0.17 nM |  | CO[C@H]1/C=C/C[C@H](C)C[S@@](=O)(NC(=O)c2ccc3c(c2)CCOC3)=NC(=O)c2ccc3c(c2)N(C[C@@H]2CC[C@H]21)C[C@@]1(CCCc2cc(Cl)ccc21)CO3 [Example 430] |
| 197 nM | 0.092 nM |  | COc1nn(C)cc1C(=O)N[S@@]1(=O)=NC(=O)c2ccc3c(c2)N(C[C@@H]2CC[C@H]2[C@@H](OC(=O)N(C)C)/C=C/C[C@H](C)C1)C[C@@]1(CCCc2cc(Cl)ccc21)CO3 [Example 404] |

| Compound | EC50 (SKBR3 cells; Homo sapiens, SK-BR-3, 72 h) | IC50 [1] | EC50 (SKBR3 cells; 72 hours) |
| --- | --- | --- | --- |
| CO[C@H]1/C=C/C[C@H](C)C[S@@](=O)(NC(=O)N2C[C@@H](OC)[C@@H]2C)=NC(=O)c2ccc3c(c2)N(C[C@@H]2CC[C@H]21)C[C@@]1(CCCc2cc(Cl)ccc21)CO3 [Example 253] | 39.2 nM | 0.037 nM |  |
| CO[C@H]1/C=C/C[C@H](C)C[S@@](=O)(NC(=O)N2CC(OC(=O)N(C)C)C2)=NC(=O)c2ccc3c(c2)N(C[C@@H]2CC[C@H]21)C[C@@]1(CCCc2cc(Cl)ccc21)CO3 [Example 292] | 45.1 nM | 0.02 nM |  |
| CO[C@H]1/C=C/CCC[S@@](=O)(NC(=O)C2CCC2)=NC(=O)c2ccc3c(c2)N(C[C@@H]2CC[C@H]21)C[C@@]1(CCCc2cc(Cl)ccc21)CO3 [Example 31] | 2590 nM | 3.1 nM |  |
